Test results: publication PMC6790002, “Synthesis and Biological Evaluation of Structurally Varied 5′-/6′-Isonucleosides and Theobromine-Containing N-Isonucleosidyl Derivatives” (Pharmaceuticals, 2019)
Several values for one entry are separate records, joined by “and”; a condition that tells them apart may be missing. Equal values may be shown once. Where a name gives a salt, the structure may show the parent alone. Read-outs that look alike come from different tables or passages of the source.

Key:
[1] = biological target: T1, acetylcholinesterase (AChE, from Electrophorus electricus) (Electrophorus electricus, UniProt O42275); test: Acetylcholinesterase inhibition, Ellman's method; type: biochemical; conditions: for % Inhibition of AChE / inhibition at 50 µM: at 50 µM compound
T1 construct: purchased Fluka
T1 sequence (O42275 24-633): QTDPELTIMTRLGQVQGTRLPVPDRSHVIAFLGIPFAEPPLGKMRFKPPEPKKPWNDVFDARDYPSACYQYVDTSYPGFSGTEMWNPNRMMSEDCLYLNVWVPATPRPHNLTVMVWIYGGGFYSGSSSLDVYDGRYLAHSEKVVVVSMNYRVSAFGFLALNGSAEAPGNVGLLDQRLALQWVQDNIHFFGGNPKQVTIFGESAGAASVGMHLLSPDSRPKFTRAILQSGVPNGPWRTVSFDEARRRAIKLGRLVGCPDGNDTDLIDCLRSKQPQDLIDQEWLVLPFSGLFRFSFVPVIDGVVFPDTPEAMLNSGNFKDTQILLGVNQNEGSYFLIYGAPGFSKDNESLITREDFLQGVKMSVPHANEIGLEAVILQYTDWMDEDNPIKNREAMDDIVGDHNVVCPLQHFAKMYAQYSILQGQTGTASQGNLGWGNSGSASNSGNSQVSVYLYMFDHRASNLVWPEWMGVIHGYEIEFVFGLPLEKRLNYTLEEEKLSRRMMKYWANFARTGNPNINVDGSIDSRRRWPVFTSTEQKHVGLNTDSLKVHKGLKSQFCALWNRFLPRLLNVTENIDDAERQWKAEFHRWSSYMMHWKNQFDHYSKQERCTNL

[2] = biological target: T2, butyrylcholinesterase (BChE, from equine serum) (Equus caballus, UniProt P81908); test: Butyrylcholinesterase inhibition, Ellman's method; type: biochemical; conditions: for % Inhibition of BChE / inhibition at 50 µM: at 50 µM compound
T2 construct: Butyrylcholinesterase (from equine serum) was bought from Sigma; purchased Sigma; host or cells: equine serum
T2 sequence (P81908 whole entry): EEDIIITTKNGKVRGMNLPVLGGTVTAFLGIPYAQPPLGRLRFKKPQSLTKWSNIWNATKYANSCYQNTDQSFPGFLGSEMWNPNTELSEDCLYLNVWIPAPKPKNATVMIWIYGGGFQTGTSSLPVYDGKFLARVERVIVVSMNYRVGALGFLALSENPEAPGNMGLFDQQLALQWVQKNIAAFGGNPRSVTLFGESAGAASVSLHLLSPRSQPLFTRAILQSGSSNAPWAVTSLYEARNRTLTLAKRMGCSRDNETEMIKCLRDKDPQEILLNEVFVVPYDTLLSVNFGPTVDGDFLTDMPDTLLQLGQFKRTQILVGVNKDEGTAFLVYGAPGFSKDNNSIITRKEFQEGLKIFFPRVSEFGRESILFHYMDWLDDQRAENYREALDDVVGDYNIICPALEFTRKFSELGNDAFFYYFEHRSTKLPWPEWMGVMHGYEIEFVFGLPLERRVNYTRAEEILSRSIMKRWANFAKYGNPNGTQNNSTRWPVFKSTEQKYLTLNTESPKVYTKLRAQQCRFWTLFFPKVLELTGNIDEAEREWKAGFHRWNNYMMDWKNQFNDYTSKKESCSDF

[3] = system: acetylcholinesterase (AChE); conditions: Figure 1, cited from earlier work

With “1-(5-Deoxy-3-O-dodecyl-α-D-xylofuranos-5-yl)-3,7-dimethyl-3,7-dihydro-1H-purine-2,6-dione [Compound 18]” the “% Inhibition of AChE” value [1] was 14.5% and the “% Inhibition of BChE” value [2] was 19.6%.
For `CO[C@H]1O[C@H](Cn2c(=O)c3c(ncn3C)n(C)c2=O)[C@@H](OC(C)=O)[C@H](OC(C)=O)[C@H]1OC(C)=O` [A], the “inhibition of AChE (in words)” value ([3]; theobromine 6′-isonucleoside) is given as “good inhibitory effect”.
For `CC(=O)O[C@H]1C(NS(C)(=O)=O)O[C@H](Cn2c(=O)c3c(ncn3C)n(C)c2=O)[C@@H]1OCc1ccccc1` (some centres unmarked) [B], the “inhibition of AChE (in words)” value ([3]; N-isonucleosidyl sulfonamide) is given as “micromolar and selective inhibition of AChE”.
With `CCCCCCCCCCCCO[C@@H]1[C@H]2OC(C)(C)O[C@H]2O[C@@H]1Cn1c(=O)c2c(ncn2C)n(C)c1=O` [Compound 3, 1-(5-Deoxy-3-O-dodecyl-1,2-O-isopropylidene-α-D-xylofuranos-5-yl)-3,7-dimethyl-3,7-dihydro-1H-purine-2,6-dione] the inhibition at 50 µM [1] was 13.8% and the inhibition at 50 µM [2] was 11.7%.
Compound `CCCCCCCCCCCCO[C@@H]1[C@H]2OC(C)(C)O[C@H]2O[C@@H]1Cn1cnc2c(N)ncnc21` [Compound 4, 9-(5-Deoxy-3-O-dodecyl-1,2-O-isopropylidene-α-D-xylofuranos-5-yl)adenine] has an inhibition at 50 µM [1] of 16.3% and an inhibition at 50 µM [2] of 11.9%.
Work on `CCCCCCCCCCCCO[C@@H]1[C@H]2OC(C)(C)O[C@H]2O[C@@H]1Cn1cnc2c(Cl)nc(NC(C)=O)nc21` [Compound 5, 2-Acetamido-6-chloro-9-(5-deoxy-3-O-dodecyl-1,2-O-isopropylidene-α-D-xylofuranos-5-yl)purine] yielded an inhibition at 50 µM [1] of 25.3% and an inhibition at 50 µM [2] of 32.5%.
In the case of `CCCCCCCCCCCCO[C@@H]1[C@H]2OC(C)(C)O[C@H]2O[C@@H]1Cn1ccc(=O)[nH]c1=O` [Compound 6, 1-(5-Deoxy-3-O-dodecyl-1,2-O-isopropylidene-α-D-xylofuranos-5-yl)uracil], the inhibition at 50 µM [1] is reported as 22.5% and the inhibition at 50 µM [2] is reported as 28.5%.
With `CCCCCCCCCCCCO[C@@H]1[C@H]2OC(C)(C)O[C@H]2O[C@@H]1Cn1c(=O)cc[nH]c1=O` [Compound 7, 3-(5-deoxy-3-O-dodecyl-1,2-O-isopropylidene-α-D-xylofuranos-5-yl)uracil] the inhibition at 50 µM [1] was 17.8% and the inhibition at 50 µM [2] was 7.5%.
In the case of `CCCCCCCCCCCCO[C@@H]1[C@H]2OC(C)(C)O[C@H]2O[C@@H]1Cn1ccc(=O)n(C[C@H]2O[C@@H]3OC(C)(C)O[C@@H]3[C@H]2OCCCCCCCCCCCC)c1=O` [Compound 8, 1,3-bis-(5-deoxy-3-O-dodecyl-1,2-O-isopropylidene-α-D-xylofuranos-5-yl)uracil], the inhibition at 50 µM [1] is reported as 26.1% and the inhibition at 50 µM [2] is reported as 32.8%.
For `CCCCCCCCCCCCO[C@@H]1[C@H]2OC(C)(C)O[C@H]2O[C@@H]1COc1ccnc(OC[C@H]2O[C@@H]3OC(C)(C)O[C@@H]3[C@H]2OCCCCCCCCCCCC)n1` [Compound 9, 2,4-bis-O-(5-deoxy-3-O-dodecyl-1,2-O-isopropylidene-α-D-xylofuranos-5-yl)uracil], the “Ki′ (uncompetitive inhibition), AChE” value [1] was 103.0 µM and 103.0 ± 4.3 µM, the “type of inhibition, AChE” value [1] was “mixed-type” and the inhibition at 50 µM [1] was 40.3%. The Ki ([1]; read-out: Ki (competitive inhibition), AChE) was 17.5 ± 0.7 µM and the inhibition at 50 µM [2] was 29.8%.
For `CCCCCCCCCCCCO[C@H]1[C@@H](Cn2c(=O)c3c(ncn3C)n(C)c2=O)OC(O)[C@@H]1O` (stereo partly drawn) [Compound 10, 1-(5-Deoxy-3-O-dodecyl-α,β-D-xylofuranos-5-yl)-3,7-dimethyl-3,7-dihydro-1H-purine-2,6-dione], the inhibition at 50 µM [1] was 2.6% and the inhibition at 50 µM [2] was 22.9%.
For `CCCCCCCCCCCCO[C@H]1[C@@H](Cn2c(=O)c3c(ncn3C)n(C)c2=O)OC(NS(C)(=O)=O)[C@@H]1OC(C)=O` (stereo partly drawn) [Compound 12, N-[2-O-Acetyl-1,5-dideoxy-5-(3,7-dimethyl-3,7-dihydro-2,6-dioxo-1H-purin-1-yl)-3-O-dodecyl-α,β-D-xylofuranos-1-yl]methanesulfonamide], the “inhibitory effect on AChE (in words)” value [1] was “devoid of any inhibitory effects”, the inhibition at 50 µM [1] was 1% and the “inhibitory effect on BChE (in words)” value [2] was “devoid of any inhibitory effects”. The inhibition at 50 µM [2] was 4.6%.
For `CCCCCCCCCCCCO[C@@H]1[C@@H](OC(C)=O)[C@@H](N=[N+]=[N-])O[C@@H]1Cn1c(=O)c2c(ncn2C)n(C)c1=O` [Compound 13-α, 1-(2-O-Acetyl-1-azido-1,5-dideoxy-3-O-dodecyl-α-D-xylofuranos-5-yl)-3,7-dimethyl-3,7-dihydro-1H-purine-2,6-dione], the “inhibitory effect on AChE (in words)” value [1] was “devoid of any inhibitory effects”, the inhibition at 50 µM [1] was 18.9% and the “inhibitory effect on BChE (in words)” value [2] was “devoid of any inhibitory effects”. It also gave an inhibition at 50 µM [2] of 35%.
In the case of `COc1ccc2c3c1O[C@H]1C[C@@H](O)C=C[C@@]31CCN(C)C2` [Galantamine hydrobromide, galantamine hydrobromide, reference compound], the “type of inhibition, BChE” value [2] is reported as “competitive” and the inhibition at 50 µM [2] is reported as 86.3%.
With “N-[2,4-Di-O-acetyl-1,6-dideoxy-6-(3,7-dimethyl-3,7-dihydro-2,6-dioxo-1H-purin-1-yl)-3-O-dodecyl-α,β-D-glucopyranos-1-yl]methanesulfonamide [Compound 22]” the “% Inhibition of AChE” value [1] was 28.3% and the “% Inhibition of BChE” value ([2]; 50 µM) was 53% and 52.6%.
